# Test results published in US11701333B2, “Antibacterial compounds” (KENT INNOVATION & ENTERPRISE, priority 2017, dated 2023).
# Legend:
# Format in all cases: cell-based
# [1] = test system: S. aureus; assay: drop test activity screening; also: key: Y = antibacterial activity; N = No antibacterial activity
# Excerpt: (§1) The ability of each of the compounds of the invention to impact bacterial growth and viability has been tested. This has been undertaken using a novel drop-test method for initial activity screening, as well as using conventional growth curve analysis methodology. This novel class of antimicrobial agent has shown bactericidal activity against Gram +ve (e.g. S. aureus, Bacillus megaterium) and bacteriostatic activity against Gram −ve isolates (e.g. E. coli).
# (§2) The compounds were screened initially by drop testing methods and then by growth rate methods as it was identified that drop testing methods could give false negatives.
# [2] = test system: E. coli; assay: drop test activity screening; also: key: Y = antibacterial activity; N = No antibacterial activity
# Excerpt: as §1, §2
# [3] = test system: S. aureus; assay: growth rate (growth curve) activity screening; conditions: for Grow Rates activity S. aureus Log: log phase bacterial growth; for Grow Rates activity S. aureus: phase not given
# Excerpt: as §1, §2
# [4] = test system: E. coli; assay: growth rate (growth curve) activity screening; conditions: first E. coli growth column, phase not given
# Excerpt: as §1, §2
# [5] = test system: S. aureus; assay: Calculated MIC50 and MIC100 values; conditions: for MIC50 Staph Log / MIC100 Staph Log: log phase; for MIC50 Staph Stat / MIC100 Staph Stat: stationary phase
# Excerpt: (§3) The present inventors have determined MIC50 values, in the nM-μM range, for lead compounds, against clinical S. aureus isolates (e.g. MRSA) and E. coli in both log and stationary phases.
# [6] = test system: E. coli; assay: Calculated MIC50 and MIC100 values
# Excerpt: as §3
SMILES,drop test activity S. aureus [1],drop test activity E. coli [2],Grow Rates activity S. aureus Log [3],further results
"CCCCNC(=O)NCCS(=O)(=O)O [Compound 48, reference compound]",N,N,–,–
"CCCCNC(=S)NCCCS(=O)(=O)O [Compound 51, reference compound]",N,N,–,–
O=C(NCS(=O)(=O)O)Nc1ccccc1-c1nc2ccccc2s1 [Compound 54],N,N,–,–
O=C(NCS(=O)(=O)O)Nc1c(F)c(F)c(F)c(F)c1F [Compound 65],N,N,–,–
O=C(NCS(=O)(=O)O)Nc1ccccc1 [Compound 40],N,N,–,–
Nc1ccc(NC(=O)NCS(=O)(=O)O)cc1 [Compound 74],N,N,Y,–
O=C(NCS(=O)(=O)O)Nc1ccc2cc3ccccc3cc2c1 [Compound 52],N,N,Y,Grow Rates activity E. coli [4]: Y; MIC50 Staph Log [5]: 330.0044 μg/mL
O=C(NCS(=O)(=O)O)Nc1ccc(C(F)(F)F)cc1 [Compound 33],Y,N,Y,MIC50 Staph Log [5]: 0.45 μg/mL; MIC100 Staph Log [5]: 2.971 μg/mL; MIC50 Staph Stat [5]: 5.579 µg/mL; MIC100 Staph Stat [5]: 7.304 µg/mL
O=S(=O)(O)CNC(=S)Nc1cc(C(F)(F)F)cc(C(F)(F)F)c1 [Compound 43],Y,N,Y,Grow Rates activity E. coli [4]: Y
O=S(=O)(O)CNC(=S)Nc1ccc(C(F)(F)F)cc1 [Compound 62],N,N,Y,–
Cc1ccc2nc(NC(=O)NCS(=O)(=O)O)sc2c1 [Compound 72],N,N,N,Grow Rates activity S. aureus [3]: Y
O=C(NCS(=O)(=O)O)Nc1ccc(C(F)(F)F)cc1 [Compound 31],Y,N,Y,MIC50 Staph Log [5]: 21.6 μg/mL; MIC100 Staph Log [5]: 22.68 μg/mL; MIC50 Staph Stat [5]: 14.79 µg/mL; MIC100 Staph Stat [5]: 14.84 µg/mL
O=C(NCS(=O)(=O)[O-])Nc1ccc(C(F)(F)F)cc1.[K+] [Compound 42],N,N,–,–
O=S(=O)(O)CNC(=S)Nc1ccc(C(F)(F)F)cc1 [Compound 63],N,N,–,–
"CCCCNC(=O)NCS(=O)(=O)O [Compound 46, reference compound]",N,N,–,–
O=S(=O)(O)CNC(=S)Nc1ccc(C(F)(F)F)cc1 [Compound 61],N,N,Y,–
O=C(NCCS(=O)(=O)O)Nc1ccc(C(F)(F)F)cc1 [Compound 3],N,N,–,–
O=C(NCS(=O)(=O)O)Nc1ccc(C(F)(F)F)cc1 [Compound 32],Y,N,Y,MIC50 Staph Log [5]: 19.14 μg/mL; MIC100 Staph Log [5]: 20.08 μg/mL; MIC50 Staph Stat [5]: 39.4 µg/mL; MIC100 Staph Stat [5]: 57 µg/mL

SMILES,drop test activity S. aureus [1],drop test activity E. coli [2],Grow Rates activity S. aureus Log [3],further results
O=S(=O)(O)CCCNC(=S)Nc1ccc(C(F)(F)F)cc1 [Compound 6],Y,N,–,–
Cc1ccc2sc(-c3ccc(NC(=O)NCS(=O)(=O)O)cc3)nc2c1 [Compound 53],Y,N,Y,Grow Rates activity E. coli [4]: Y; MIC50 Staph Log [5]: 21.11 μg/mL
"CCCCNC(=S)NCCS(=O)(=O)O [Compound 49, reference compound]",N,N,–,–
COc1ccc(NC(=O)NCS(=O)(=O)O)cc1 [Compound 39],N,N,–,–
O=C(NCS(=O)(=O)O)Nc1ccc([N+](=O)[O-])cc1 [Compound 38],Y,N,Y,Grow Rates activity E. coli [4]: Y
O=C(NCS(=O)(=O)O)Nc1ccc(C(F)(F)F)cc1 [Compound 37],Y,N,Y,"MIC50 Staph Log [5]: 29.08 μg/mL; MIC100 Staph Log [5]: 30.35 μg/mL; MIC50 Staph Stat [5]: 464.1399 µg/mL; MIC100 Staph Stat [5]: 559.1301 µg/mL; MIC50 ([6]; Escherichia coli, stationary phase, read-out: MIC50 Coli Stat): 451 µg/mL; MIC ([6]; Escherichia coli, stationary phase, read-out: MIC100 Coli Stat): 480 µg/mL; MIC50 Coli Log ([6]; log phase): 236.9979 μg/mL; MIC100 Coli Log ([6]; log phase): 505.6726 μg/mL"
O=C(NCS(=O)(=O)O)Nc1ccc(C(F)(F)F)cc1 [Compound 1],Y,N,Y,Grow Rates activity S. aureus [3]: Y; Grow Rates activity E. coli [4]: Y; MIC50 Staph Log [5]: 7.35 μg/mL; MIC100 Staph Log [5]: 29.41 μg/mL; MIC50 Staph Stat [5]: 209.132 µg/mL; MIC100 Staph Stat [5]: 254.5639 µg/mL; MIC50 Coli Stat ([6]; stationary phase): 412.0789 µg/mL; MIC100 Coli Stat ([6]; stationary phase): 421.0559 µg/mL
O=C(NCS(=O)(=O)O)Nc1cc(C(F)(F)F)cc(C(F)(F)F)c1 [Compound 44],Y,N,–,–
O=C(NCCCS(=O)(=O)O)Nc1ccc(C(F)(F)F)cc1 [Compound 5],N,N,–,–
"CCCCNC(=O)NCCCS(=O)(=O)O [Compound 50, reference compound]",N,N,–,–
O=S(=O)(O)CCNC(=S)Nc1ccc(C(F)(F)F)cc1 [Compound 4],Y,N,–,–
O=C(NCS(=O)(=O)O)Nc1cccc2ccccc12 [Compound 45],N,N,–,–
O=C(NCS(=O)(=O)O)Nc1nc2ccccc2s1 [Compound 71],N,N,Y,Grow Rates activity S. aureus [3]: N
O=C(NCS(=O)(=O)O)Nc1ccc(C(F)(F)F)cc1 [Compound 34],Y,N,Y,Grow Rates activity E. coli [4]: Y; MIC50 Staph Log [5]: 146.6192 μg/mL
O=C(NCS(=O)(=O)O)Nc1ccc(Cc2ccc(NC(=O)NCS(=O)(=O)O)cc2)cc1 [Compound 68],Y,N,Y,MIC50 Staph Log [5]: 370.0761 μg/mL
O=S(=O)(O)CNC(=S)Nc1ccc(C(F)(F)F)cc1 [Compound 2],Y,N,Y,Grow Rates activity E. coli [4]: Y; MIC50 Staph Log [5]: 54.13 μg/mL; MIC100 Staph Log [5]: 93.55 μg/mL
"CCCCNC(=S)NCS(=O)(=O)O [Compound 47, reference compound]",N,N,–,–
O=C(NCS(=O)(=O)[O-])Nc1ccc(C(F)(F)F)cc1.[Na+] [Compound 41],Y,N,–,–
